According to paper PMC11111408, “Concurrent inhibition of oncogenic and wild-type RAS-GTP for cancer therapy” (Nature, 2024):
Several values for one entry are separate records, joined by “and”; a condition that tells them apart may be missing. Identical values can stand only once.

What was measured:
NCI-H441 CDX tumours = assay: NCI-H441 CDX efficacy study; format: in vivo, mouse; conditions: NCI-H441 model, 10 mg kg^−1 daily oral, 28 days
Experimental: Xenograft studies were conducted at GenenDesign, Pharmaron, Wuxi AppTec, the laboratory of P. Lito, and the laboratory of C. Ambrogio. […] All procedures related to animal handling, care and treatment were conducted in compliance with all applicable regulations and guidelines of the relevant Institutional Animal Care and Use Committee (IACUC). […] Experimental details are supplied in the Supplementary Methods.

[1] = test system: antigen specific CD8+ T cells, C57BL/6J mice; assay: OVA peptide vaccination, CD8+ T cell response; format: in vivo, mouse; conditions: individual mice; for IFNγ production by ELISpot: 25 mg/kg PO daily, 25 mg/kg
Experimental: Mice were euthanized on day 15 after treatment start, and spleens were harvested and assessed for frequency of antigen specific (H-2Kb [sequence] tetramer positive) CD8 + T cells by flow cytometry (a) and for IFNγ production by ELISpot.
Briefly, bone marrow was isolated from the femurs and tibias of 6-8 week-old female C57BL/6J mice (Jackson Laboratory). Bone marrow cells were plated in complete RPMI containing 10% FBS, 1 mM Sodium Pyruvate, mM HEPES, 1x MEM Non-Essential Amino Acids, and supplemented with GMCSF (Peprotech) at 20 ng/ml. On day 10, 0.5 ng/ml IL-4 (Peptotech) was added to the media. 50% of the media was replaced with fresh GMCSF-containing media on culture days 6, 8, and 10. […] 100% of the media was replaced on culture days 12 and 13. To activate BMDCs prior to vaccination, 0.5 μg/ml CpG (Invivogen, tlrl-1668) and 1 μg/ml LPS (Sigma Aldrich, L5418) were added to the media on day 13. On culture day 14, activated BMDCs were pulsed with OVA peptide ([sequence]) (1 μg/ml, Anaspec, AS-60193-1) for 2 hours and washed 3 times in serum-free RPMI. 1x10^6 peptide-pulsed, activated BMDCS were injected intravenously into each mouse on day 0 and day 8. […] After 15 days of treatment, mice were euthanized and spleens were harvested. Spleens were mechanically dissociated into single-cell suspension, incubated at 4°C for 20 minutes with Mouse Fc blocking agent (anti-CD16/32, Biolegend) and Live/Dead blue Viability Dye (ThermoFisher), and 20 minutes with cell staining antibody mix. […] Murine IFN𝛄 ELISpot (ImmunoSpot, CTL) was performed according to manufacturer’s protocol. Briefly, spleens were mechanically dissociated into single-cell suspension. […] Plates were incubated at 37°C, 5% CO2 for 24 hours before staining and analysis on the CTL ImmunoSpot S6 Universal M2 Analyzer.

KRAS^G12S = KRAS^G12S (Homo sapiens, UniProt P01116+P62937, G12S); assay: Cellular RAS–CYPA binding (tri-complex formation), nano-BRET in U2OS cells; format: cell-based; design: expressed in transfected cells; host or cells: U2OS PPIA-KO; conditions: (95% CI)
Excerpt: (§1) KRAS4B, or other small GTPases, containing the indicated mutations were cloned in pNLF-N or pHTN plasmids for expression with an N-terminal nanoluciferase or HaloTag fusion, respectively. […] The following day, the cells were collected by Trypsin and reseeded in a white tissue culture-treated 96-well plate in OptiMem phenol red-free medium (Gibco) containing 4% FBS and a 1:1,000 dilution of NanoBRET 618 HaloTag ligand (Promega). For endpoint concentration response curves, vivazine nanoluciferase substrate was added to 1× concentration in OptiMem phenol red-free medium with 4% FBS. Varying concentrations of inhibitor were added and incubated for 1 or 4 h before the nano-BRET signal was measured on a Perkin Elmer Envision plate reader. For kinetic assays, endurazine nanoluciferase substrate was used in place of vivazine, and the plate was placed in a Cytation5 multi-mode reader pre-equilibrated to 37 °C and 5% CO2.

KRAS^G12V = KRAS^G12V (Homo sapiens, UniProt P01116+P62937, G12V); assay: as above; format: cell-based; design: expressed in transfected cells; host or cells: U2OS PPIA-KO; conditions: for Cellular milliBRET signal between CYPA and KRAS G12V: KRASG12V, single replicates
Excerpt: as §1

NRAS^Q61K = NRAS^Q61K (Homo sapiens, UniProt P01111+P62937, Q61K); assay: RAS binding affinity of compound-bound CYPA (Kd2), SPR; conditions: steady state SPR, (95% CI)
NRAS^Q61L = NRAS^Q61L (Homo sapiens, UniProt P01111+P62937, Q61L); assay: as above; conditions: steady state SPR, (95% CI)
A375 cells [2] = assay: Cell proliferation (CTG); format: cell-based, human
Experimental: Alternatively, cells were seeded in round-bottom ultra-low attachment 96-well plates, centrifuged at 1,000 rpm for 10 min to pellet the cells, and incubated overnight or up to 72 h to allow for 3D spheroid formation. […] Cell viability was determined by CellTiter-Glo 2.0 reagent (2D CTG) (Promega, G9243) or 3D CellTiter-Glo reagent (3D CTG) (Promega, G9683) according to the manufacturer’s protocols. Luminescence was detected using a SpectraMax M5 Plate Reader (Molecular Devices) of Perkin Elmer Enspire. Luminescence signal was normalized to vehicle-treated wells (normalized signal (%) = (luminescence (treated)/mean luminescence (vehicle)) × 100%). […] Data were plotted as log [inhibitor (M)], and a four-parameter sigmoidal concentration response model was fitted to the data to calculate EC50. […] Pa16C MEK1 mutant cells were evaluated by live-cell counting using Calcein AM and a SpectraMax i3X multi-mode detection platform (Molecular Devices). Growth percentages were calculated by normalizing the treated cell counts to their respective untreated cell counts.

[3] = test system: Capan-1, SW620, AsPC-1, HPAC, NCI-H358, PSN1, HUPT3, HCT 116, Hs 766T, SK-MEL-30, KU1919, NCI-H1975, A375; assay: pERK (AlphaLISA) in human cancer cell lines; format: cell-based
Excerpt: Data points show biological duplicates normalized to vehicle control. […] Data points show biological duplicates normalized to vehicle control from 1 of 2–26 independent experiments. Source Data

NRAS^Q61R = NRAS^Q61R (Homo sapiens, UniProt P01111+P62937, Q61R); assay: RAS binding affinity of compound-bound CYPA (Kd2), SPR; conditions: steady state SPR, (95% CI)
[4] = test system: KRAS^G12C with secondary switch II pocket mutations; assay: Cellular nano-BRET KRAS:CRAF disruption, KRAS^G12C with secondary SWII mutations; format: cell-based, human; conditions: KRAS^G12C with secondary mutation, 4 h
A375 cells [5] = assay: Cellular ERK phosphorylation (pERK); format: cell-based, human
[6] = A375, BRAF^V600E, RAS-independent

CCn1c(-c2cc(N3CCN(C4CC4)CC3)cnc2[C@H](C)OC)c2c3cc(ccc31)-c1csc(n1)C[C@H](NC(=O)[C@H]1[C@@H]3COC[C@@H]31)C(=O)N1CCC[C@H](N1)C(=O)OCC(C)(C)C2 [RMC-7977]
mean tumour regression (NCI-H441 CDX tumours): 83%
% Antigen specific CD8 T cells ([1]; spleen, day 15, 25 mg/kg PO daily, OVA peptide vaccinated C57BL/6J mice): 1.46% and 1.22% and 0.72%
IFNγ production by ELISpot ([1]; splenocytes stimulated with SIINFEKL): 1885 and 890 and 922
IFNγ production by ELISpot ([1]; splenocytes, no stim): 35 and 80 and 53
EC50 (KRAS^G12S): 2.24 nM
Cellular milliBRET signal between CYPA and KRAS G12V (KRAS^G12V; RMC-7977 0.152 nM): 1.173 milliBRET and 1.06 milliBRET and 0.9358 milliBRET and 1.334 milliBRET and 1.012 milliBRET and 1.508 milliBRET
Cellular milliBRET signal between CYPA and KRAS G12V (KRAS^G12V; RMC-7977 0.457 nM): 1.649 milliBRET and 2.359 milliBRET and 1.781 milliBRET and 2.809 milliBRET and 1.779 milliBRET and 2.2094 milliBRET
Cellular milliBRET signal between CYPA and KRAS G12V (KRAS^G12V; RMC-7977 1.372 nM): 4.1167 milliBRET and 4.336 milliBRET and 3.9 milliBRET and 4.218 milliBRET and 4.578 milliBRET and 4.094 milliBRET
Cellular milliBRET signal between CYPA and KRAS G12V (KRAS^G12V; RMC-7977 4.115 nM): 7.461 milliBRET and 7.409 milliBRET and 7.89 milliBRET and 7.071 milliBRET and 7.622 milliBRET and 7.676 milliBRET
Cellular milliBRET signal between CYPA and KRAS G12V (KRAS^G12V; RMC-7977 12.346 nM): 11.4839 milliBRET and 11.5824 milliBRET and 12.0176 milliBRET and 11.1912 milliBRET and 11.5065 milliBRET and 11.1163 milliBRET
Cellular milliBRET signal between CYPA and KRAS G12V (KRAS^G12V; RMC-7977 37.037 nM): 13.6301 milliBRET and 14.0182 milliBRET and 13.661 milliBRET and 13.6725 milliBRET and 13.3211 milliBRET and 13.487 milliBRET
Cellular milliBRET signal between CYPA and KRAS G12V (KRAS^G12V; RMC-7977 111.111 nM): 14.1557 milliBRET and 14.0898 milliBRET and 14.0287 milliBRET and 13.9679 milliBRET and 13.745 milliBRET and 13.7924 milliBRET
Cellular milliBRET signal between CYPA and KRAS G12V (KRAS^G12V; RMC-7977 333.333 nM): 14.0834 milliBRET and 13.7044 milliBRET and 13.6567 milliBRET and 12.9685 milliBRET and 13.078 milliBRET and 12.7653 milliBRET
Cellular milliBRET signal between CYPA and KRAS G12V (KRAS^G12V; RMC-7977 1000.000 nM): 14.1055 milliBRET and 12.901 milliBRET and 13.6313 milliBRET and 12.8159 milliBRET and 14.3526 milliBRET and 13.1398 milliBRET
EC50 (KRAS^G12V; KRAS^G12V, nano-BRET, (95% CI)): 2.25 nM
Kd (NRAS^Q61K): 72.4 nM
Kd (NRAS^Q61L): 240 nM
inhibition of proliferation (A375 cells [2]; [6]): No inhibition
EC50 (A375 cells [2]; Homo sapiens, A-375, A375, CTG, (95% CI)): 8830 nM
pERK of RAS mutant and RAS WT cell lines treated with RMC-7977 ([3]; CAPAN1, RMC-7977 1.52 nM): 19.123 and 19.8052
pERK of RAS mutant and RAS WT cell lines treated with RMC-7977 ([3]; CAPAN1, RMC-7977 4.57 nM): 1.955 and 2.566
pERK of RAS mutant and RAS WT cell lines treated with RMC-7977 ([3]; HUPT3, RMC-7977 0.05 nM): 94.4091 and 94.8337 and 88.9674 and 91.9384 and 90.4786 and 91.137
pERK of RAS mutant and RAS WT cell lines treated with RMC-7977 ([3]; HUPT3, RMC-7977 0.46 nM): 54.494 and 62.3496 and 67.5543 and 72.6449 and 54.2163 and 63.5857
pERK (normalised response) ([3]; NCIH358, RMC-7977 0.05 nM): 95.3351 and 101.687
pERK (normalised response) ([3]; NCIH358, RMC-7977 0.46 nM): 100.659 and 104.04
pERK (normalised response) ([3]; NCIH358, RMC-7977 4.12 nM): 12.3735 and 16.2725
pERK (normalised response) ([3]; PSN1, RMC-7977 0.05 nM): 88.9166 and 100.089
pERK (normalised response) ([3]; RMC-7977 123.46 nM, replicates): -0.725 and -0.593 and -0.5397 and -0.3753 and -0.4309 and -0.2687 and -0.4302 and -0.02426 and 0.06955 and 0.1569 and -0.4286 and -0.3396 and -0.5772 and -0.5479 and -0.6628 and -0.5005 and -0.5749 and -0.2908
pERK (normalised response) ([3]; RMC-7977 370.39 nM, replicates): -0.7644 and -0.7111 and -0.5907 and -0.5768 and -0.4216 and -0.3892 and -0.6033 and -0.5758 and -0.3364 and 0.5402 and -0.5111 and -0.3801 and -0.726 and -0.7102 and -0.7981 and -0.753 and -0.6335 and -0.6222
pERK (normalised response) ([3]; RMC-7977 1111.14 nM, replicates): -0.8316 and -0.7436 and -0.6671 and -0.6486 and -0.6046 and -0.6033 and -0.5758 and -0.3138 and -0.0744 and -0.5014 and -0.4707 and -0.7846 and -0.6967 and -0.78 and -0.7169 (2×) and -0.6921
pERK (normalised response) ([3]; RMC-7977 3333.41 nM, replicates): -0.871 and -0.8455 and -0.7297 and -0.8432 and -0.7667 and -0.6405 and -0.6259 and -0.2555 and 0.2652 and -0.5936 and -0.3995 and -0.7395 and -0.6651 and -0.762 and -0.5906 and -0.7169 and -0.656
pERK (normalised response) ([3]; RMC-7977 10000.00 nM, replicates): -0.9243 and 0.3336 and -0.8571 and 0.183 and -0.9196 and -0.05096 and -0.6324 and -0.02426 and -0.4949 and 0.5774 and -0.5725 and 0.8637 and -0.8004 and 0.4058 and -0.7439 and 0.02254 and -0.7755 and 0.9604
Kd (NRAS^Q61R): 239 nM
effect of switch II pocket binding mutations (R68, Y96, H95) on potency [4]: little or no effect
inhibition of downstream signalling (pERK) (A375 cells [5]; [6]): No inhibition
EC50 (A375 cells [5]; Homo sapiens, A-375, A375 (BRAF^V600E)): > 10000 nM
